The values below come from patent publication US7468375B2 (Pfizer Inc., priority 2004, dated 2008).

SMILES strings stand for the structures. pEC50, pIC50: −log10 of the molar value. Where two headings read alike, the source gives them in different places.

For test [1], the system named is RF strain of HIV-1 in CEM-SS cells. As to the kind of experiment: HIV-1 cell protection assay (XTT dye reduction). Type of test: cell-based. The note with it: Human immunodeficiency virus 1, CEM-SS, 144 h. Here is the method:
HIV-1 Cell Protection Assay
The antiviral activities of potential modulator compounds (test compounds) were determined in HIV-1 cell protection assays using the RF strain of HIV-1, CEM-SS cells, and the XTT dye reduction method (Weislow, O. S. et al., J. Natl. Cancer Inst. 81: 577-586 (1989)). Subject cells were infected with HIV-1 RF virus at an moi of 0.025 to 0.819 or mock infected with medium only and added at 2×10^4 cells per well into 96 well plates containing half-log dilutions of test compounds. Six days later, 50 μl of XTT solution (1 mg/ml XTT tetrazolium and […] phenazine methosulfate) were added to the wells and the plates were reincubated for four hours. Viability, as determined by the amount of XTT formazan produced, was quantified spectrophotometrically by absorbance at 450 nm. Data from CPE assays were expressed as the percent of formazan produced in compound-treated cells compared to formazan produced in wells of uninfected, compound-free cells. […] The therapeutic index was calculated by dividing the cytotoxicity (CC50) by the antiviral activity (EC50).
Background: Formazan colour is commonly taken as a measure of viable cells.

The target in test [2] is T1, Full-length wild type HIV-1 integrase (SF1) (Human immunodeficiency virus type 1 group M subtype B, UniProt P04585).
T1 construct: made in house; host or cells: E. coli BL21 (DE3)
Put plainly: Integrase strand-transfer scintillation proximity assay. The note with it: 50 min at 37° C., 246 nM integrase, 50 nM host DNA. In kind it is biochemical. An excerpt:
Integrase Strand-Transfer Scintillation Proximity Assay Oligonucleotides
Oligonucleotide #1-5′-(biotin)[…]-3′ (SEQ ID NO: 1) and oligonucleotide #2-5′-[…]-3′ (SEQ ID NO: 2), were synthesized by TriLink BioTechnologies, Inc. (San Diego, Calif.). The annealed product represents preprocessed viral ds-DNA derived from the LTR U5 sequence of the viral genome. A ds-DNA control to test for non-specific interactions was made using a 3′ di-deoxy derivative of oligonucleotide #1 annealed to oligonucleotide #2. The CA overhang at the 5′ end of the non-biotinylated strand of the ds-DNA was created artificially by using a complimentary DNA oligonucleotide shortened by 2 base pairs. This configuration eliminates the requisite 3′ processing step of the integrase enzyme prior to the strand-transfer mechanism. Host ds-DNA was prepared as an unlabeled and [^3H]-thymidine labeled product from annealed oligonucleotide #3-5-[…]-3′ (SEQ ID NO: 3), and oligonucleotide #4-5′-[…]-3′ (SEQ ID NO: 4), both synthesized by TriLink BioTechnologies, Inc. (San Diego, Calif.). The annealed product had overhanging 3′ ends of poly(dA). Host DNA was custom radiolabeled by PerkinElmer Life Sciences Inc. (Boston, Mass.) using an enzymatic method with a 12/1 ratio of [methyl-3H]dTTP/cold ds-DNA to yield 5′-blunt end ds-DNA with a specific activity of >900 Ci/mmol. The radiolabeled product was purified using a NENSORB cartridge and stored in stabilized aqueous solution (PerkinElmer). The final radiolabeled product had six [^3H]-thymidine nucleotides at both 5′ ends of the host ds-DNA. Reagents: Streptavidin-coated polyvinyltoluene (PVT) SPA beads were purchased from Amersham Biosciences (Piscataway, N.J.). Cesium chloride was purchased from Shelton Scientific, Inc. (Shelton, Conn.). White, polystyrene, flat-bottom, non-binding surface, 96-well plates were purchased from Corning. All other buffer components were purchased from Sigma (St. Louis, Mo.) unless otherwise indicated.
Enzyme Construction: Full-length wild type HIV-1 integrase (SF1) sequence (amino acids 1-288) was constructed in a pET24a vector (Novagen, Madison, Wis.). The construct was confirmed through DNA sequencing. Enzyme Purification: Full length wild-type HIV Integrase was expressed in E. coli BL21 (DE3) cells and induced with 1 mM isopropyl-1 thio-β-D-galactopyranoside (IPTG) when cells reached an optical density between 0.8-1.0 at 600 nm. Cells were lysed by microfluidation in 50 mM HEPES pH 7.0, 75 mM NaCl, 5 mM DTT, 1 mM 4-(2-Aminoethyl)benzenesulfonylfluoride HCl (AEBSF). Lysate was then centrifuged 20 minutes at 11 k rpm in GSA rotor in Sorvall RC-5B at 4° C. Supernant was discarded and pellet resuspended in 50 mM HEPES pH 7.0, 750 mM NaCl, 5 mM DTT, 1 mM AEBSF and homogenized in a 40 mL Dounce homogenizer for 20 minutes on ice. Homogenate was then centrifuged 20 minutes at 11 k rpm in SS34 rotor in Sorvall RC-5B at 4° C. Supernant was discarded and pellet resuspended in 50 mM HEPES pH 7.0, 750 mM NaCl, 25 mM CHAPS, 5 mM DTT, 1 mM AEBSF. Preparation was then centrifuged 20 minutes at 11 k rpm in SS34 rotor in Sorvall RC-5B at 4° C. Supernant was then diluted 1:1 with 50 mM HEPES pH 7.0, 25 mM CHAPS, 1 mM DTT, 1 mM AEBSF and loaded onto a Q-Sepharose column pre-equilibrated with 50 mM HEPES, pH 7.0, 375 mM NaCl, 25 mM CHAPS, 1 mM DTT, 1 mM AEBSF. The flow through peak was collected and NaCl diluted to 0.1 M with 50 mM HEPES pH 7.0, 25 mM CHAPS, 1 mM DTT, 0.5 mM AEBSF and loaded onto a SP-Sepharose column pre-equilibrated with 50 mM HEPES pH 7.0, 100 mM NaCl, 25 mM CHAPS, 1 mM DTT, 0.5 mM AEBSF. After washing the column with the equilibration buffer, a 100 to 400 mM NaCl gradient was run. The eluted integrase was concentrated and run on a S-300 gel diffusion column using 50 mM HEPES pH 7.0, 500 mM NaCl, 25 mM CHAPS, 1 mM DTT, 0.5 mM AEBSF. The peak from this column was concentrated to 0.76 mg/mL and stored at −70° C. and later used for strand transfer assays. […]
In general terms: SPA uses beads or plates that emit light when radiolabelled molecules are held near them.

The mark [3] stands for this setting: HIV-1 RF, CEM-SS cells, XTT dye reduction, six days, read-out: EC50.
The mark [4] stands for this setting: strand transfer, read-out: IC50.

For orientation: pEC50 means −log10 of the EC50, conventionally taken in molar units. A word on the pIC50: it is the negative decadic logarithm of the IC50, by convention in mol/L. For `CC(C)CN(O)C(=O)c1cc2ccn(Cc3ccc(F)cc3)c2cn1` [Example 29, 1-(4-Fluorobenzyl)-N-hydroxy-N-isobutyl-1H-pyrrolo[2,3-c]pyridine-5-carboxamide], in test [1] (setting [3]), the pEC50 was 5.85. In test [2] (setting [4]), the pIC50 was 5.77.
`CN(O)C(=O)c1cc2c(COCCN3CCCC3=O)cn(Cc3ccc(F)cc3)c2cn1` [Example 117, 1-(4-Fluorobenzyl)-N-hydroxy-N-methyl-3-{[2-(2-oxopyrrolidin-1-yl)ethoxy]methyl}-1H-pyrrolo[2,3-c]pyridine-5-carboxamide]: the negative logarithm of the EC50 (pEC50) in test [1] (setting [3]) was 6.40. In addition, the pIC50 in test [2] (setting [4]) was 6.70.
As for `O=C(NO)c1cc2c(CNC3CC3c3ccccc3)cn(Cc3ccc(F)cc3F)c2cn1` (racemic) [Example 75, rac-1-(2,4-Difluorobenzyl)-N-hydroxy-3-({[(1S,2R)-2-phenylcyclopropyl]amino}methyl)-1H-pyrrolo[2,3-c]pyridine-5-carboxamide], the pEC50 in test [1] (setting [3]) is 7.85. Further, the pIC50 in test [2] (setting [4]) is 6.42.
Take `COCCOCc1cn(Cc2ccc(F)cc2)c2cnc(C(=O)N(C)O)cc12` [Example 108, 1-(4-Fluorobenzyl)-N-hydroxy-3-[(2-methoxyethoxy)methyl]-N-methyl-1H-pyrrolo[2,3-c]pyridine-5-carboxamide]: the pEC50 in test [1] is 6.48. Moreover, the pIC50 in test [2] (setting [4]) was 7.67.
Take `O=C(NO)c1ncc2c(ccn2Cc2ccc(F)cc2)c1O` [Example 42, 1-(4-Fluorobenzyl)-N,4-dihydroxy-1H-pyrrolo[2,3-c]pyridine-5-carboxamide]: in test [1] (setting [3]), the pEC50 is 9.00. Further, the pIC50 in test [2] (setting [4]) is 7.57.
As to `O=C(NO)c1cc2c(CNCC34CCCN3CCC4)cn(Cc3ccc(F)cc3F)c2cn1` [Example 92, 1-(2,4-Difluorobenzyl)-N-hydroxy-3-{[(tetrahydro-1H-pyrrolizin-7a(5H)-ylmethyl)amino]methyl}-1H-pyrrolo[2,3-c]pyridine-5-carboxamide], in test [1] (setting [3]), the pEC50 is 7.15. Further, in test [2] (setting [4]), the pIC50 was 6.37.
On to `CCOC(=O)N1C2CC[C@@H]1CC(NCc1cn(Cc3ccc(F)cc3F)c3cnc(C(=O)NO)cc13)C2` (stereo in doubt) [Example 97, Ethyl (1R,5S)-3-[({1-(2,4-difluorobenzyl)-5-[(hydroxyamino)carbonyl]-1H-pyrrolo[2,3-c]pyridin-3-yl}methyl)amino]-8-azabicyclo[3.2.1]octane-8-carboxylate], for which the pEC50 in test [1] was 7.70. For the same compound, the pIC50 in test [2] (setting [4]) was 6.51.
`COCc1c(C(=O)NOC)ncc2c1ccn2Cc1ccc(F)cc1F` [Example 20]: the pEC50 in test [1] (setting [3]) is 7.09. Further, the negative-log IC50 (pIC50) in test [2] (IC50, strand transfer) was 5.81.
On to `CN(O)C(=O)c1cc2c(CN3[C@H]4CC[C@@H]3C(=O)NC4)cn(Cc3ccc(F)cc3)c2cn1` [Example 34, (4-Fluorobenzyl)-N-hydroxy-N-methyl-3-{[(1R,5S)-2-oxo-3,8-diazabicyclo[3.2.1]oct-8-yl]methyl}-1H-pyrrolo[2,3-c]pyridine-5-carboxamide], for which, in test [1], the pEC50 was 6.77. Also, in test [2] (setting [4]), the pIC50 is 6.31.
Turning to `O=C(c1cc2ccn(Cc3ccc(F)cc3)c2cn1)N(O)CCCO` [Example 30, 1-(4-Fluorobenzyl)-N-hydroxy-N-(3-hydroxypropyl)-1H-pyrrolo[2,3-c]pyridine-5-carboxamide], in test [1] (setting [3]), the pEC50 is 6.52. Besides, in test [2] (setting [4]), the pIC50 is 6.09.
On to `CN(C)CC(C)(C)CNCc1cn(Cc2ccc(F)cc2F)c2cnc(C(=O)NO)cc12` [Example 61, 1-(2,4-Difluorobenzyl)-3-({[3-(dimethylamino)-2,2-dimethylpropyl]amino}methyl)-N-hydroxy-1H-pyrrolo[2,3-c]pyridine-5-carboxamide], for which the pEC50 in test [1] (setting [3]) was 7.46. In test [2] (setting [4]), the pIC50 is 6.04.
For `O=C(NO)c1cc2c(CNCC3CCCO3)cn(Cc3ccc(F)cc3F)c2cn1` (stereo not drawn) [Example 60, 1-(2,4-Difluorobenzyl)-N-hydroxy-3-{[(tetrahydrofuran-2-ylmethyl)amino]methyl}-1H-pyrrolo[2,3-c]pyridine-5-carboxamide], in test [1] (setting [3]), the pEC50 was 7.92. In addition, the pIC50 in test [2] (setting [4]) was 6.28.
